Measurements from patent US11938137B2, “Lipid prodrugs of mycophenolic acid and uses thereof” (PureTech LYT, Inc., priority 2017, dated 2024).

Key:
[1] = Lymphatic transport assay in mesenteric lymph-duct cannulated rats; format: in vivo, rat; conditions: total MPA related compound, intraduodenal infusion, anesthetised mesenteric lymph-duct cannulated rats; class symbols
Protocol: In order to assess the lymphatic transport of disclosed lipid prodrugs in rats, the mesenteric lymph ducts of the rats used in this study were cannulated to allow continual collection of mesenteric lymph. Lipid formulations containing the compound of interest were then administered to the animals, lymph was collected, and drug concentrations in the lymph samples were quantified.
Lipid-based formulations of the compounds of the invention or control compounds were prepared as previously described (Trevaskis, N. L. et al., Pharmaceutical Research, 2005, 22(11), 1863-1870, WO 2016/023082, and WO 2017/041139, hereby incorporated by reference.
In brief, either 1 or 2 mg of test prodrug, 40 mg oleic acid and 25 mg Tween 80 were mixed in a glass vial and incubated at 37° C. for 12-18 h to equilibrate. An aqueous phase consisting of 5.6 ml phosphate buffered saline (PBS, pH 7.4) was subsequently added to the lipid phase (MPA was dissolved in PBS for the preparation of MPA containing formulations) and the formulation emulsified by ultrasonication with a Misonix XL 2020 ultrasonic processor (Misonix, Farmingdale, NY, USA) equipped with a 3.2-mm microprobe tip running at 30% of the maximal amplitude of 240 μm and a frequency of 20 kHz for 2 min at room temperature. Doses for administering to more than one animal can be prepared in one batch by suitably increasing the quantities given above. Drug/prodrug concentrations in all formulations were verified using HPLC-MS.
Male Sprague-Dawley (SD) rats were selected for the lymphatic transport studies. Rats (typically 240-320 g) were maintained on a standard diet and fasted overnight with free access to water prior to experiments.
Anesthetized rats were placed on a heated pad at 37° C. and cannulas inserted into the duodenum (for formulation administration and rehydration), mesenteric lymph duct (for lymph collection), and carotid artery (in cases where blood collection was conducted). Post-surgery, rats were re-hydrated for 0.5 h via intraduodenal infusion of normal saline at 2.8 mL/h. The lipid formulations were infused into the duodenum at 2.8 mL/h for 2 h after which, normal saline was infused at 2.8 mL/h for the remainder of the experiment. Lymph was continuously collected for up to 8 h into pre-weighed Eppendorf tubes containing 10 μL of 1,000 IU/mL heparin. The collection tubes were changed hourly and lymph flow was measured gravimetrically. Aliquots of hourly lymph samples were stored at −20° C. prior to assay.
Drug concentration in lymph is expressed as total drug and includes free drug and drug associated with different glycerides. Lymph samples are first treated with a lipase or other appropriate conditions to liberate free active agent prior to measurement of active agent levels in the lymph. Treatment with a lipase or other hydrolysis conditions liberates free active agent from any corresponding re-esterified glycerides. Porcine pancreatic lipase is appropriate for this purpose. Alternatively, hydrolysis with 0.5 M NaOH may be used. For MPA “phenol” prodrugs (i.e. prodrugs linked to the triglyceride at the aromatic —OH group of MPA), hydrolysis was performed with 0.5 M NaOH except for the lymph samples collected from 3 rats in the group of compound I-20 (MPA-O-C12α′βMe-TG), which were hydrolyzed by porcine pancreatic lipase.
Transport of compounds into lymph during each hourly collection period was calculated from the product of the volume of lymph collected and the measured concentrations in lymph. For fluorescently-labelled compounds such as a BDP-conjugate, the concentrations of total compound may be measured by fluorescence spectroscopy without hydrolysis.
The results of the lymphatic transport assays are summarized in Table 2, below, and FIGS. 1-19. Table 2 summarizes lymphatic transport of total MPA related compound (% of administered dose) following intraduodenal infusion to anaesthetised, mesenteric lymph-duct cannulated rats. […]

[2] = In vitro release of MPA from prodrugs in plasma supplemented with lipoprotein lipase (LPL); format: in vitro ADME, rat; conditions: for Percentage MPA release at 60 min in LPL supplemented rat plasma: n = 3 unless specified otherwise; for monoglyceride (MG) peak: after 180 min, rat plasma supplemented with LPL
Protocol: The percentage of MPA released at 60 minutes in LPL-supplemented rat plasma was also determined for selected compounds. […] The designation “**” indicates a release % of >25% to 50%. The designation “***” indicates a release % of >50% to 75%. The designation “****” indicates a release % of >75%.
In order to probe the release of free drug from TG prodrugs in the systemic circulation, prodrugs were incubated with plasma (rat, mouse, dog, pig or human) supplemented with lipoprotein lipase (LPL, 200 IU/ml). LPL is a key enzyme required for the hydrolysis of lipoprotein associated TG in the systemic circulation and is therefore expected to be a key contributor to lipolysis of the re-esterified drug-TG construct in plasma, largely via liberation of fatty acids in the sn-1 and the sn-3 position of the TG-mimetic, prior to drug release from the 2′ position via esterase hydrolysis. LPL is […] is tethered to the luminal surface of vascular endothelial cells under physiological conditions. In the current in vitro studies, plasma was therefore supplemented with LPL to better reflect the in vivo situation. To start hydrolysis, 10 μl of LPL solution (10,000 IU/ml) was added to a mixture of 10 μl of prodrug solution (1 mg/ml dissolved in acetonitrile) and 500 μl of blank plasma. The mixture was incubated at 37° C. Samples (20 μl) of the incubation solution were taken at 0, 5, 15, 30, 60, 90, 120 and 180 minutes post-incubation and added to 180 μl of MeCN to stop lipolysis. The mixture was vortexed and centrifuged at 4500×g for 5 minutes to precipitate proteins prior to analysis. The supernatant was analyzed by HPLC-MS/MS for the potential products (MG form, acid form, and free drug) of prodrug hydrolysis.

[3] = Prodrug lymph node study in mice (free MPA in mesenteric and peripheral lymph nodes); format: in vivo, mouse; conditions: oral multiple dose study (2 times daily for 2 days, samples on 3rd day)
Description: This experiment included a single and multiple dose study.

| Compound | Cumulative lymphatic transport % dose (Mean ± SD, or Range if n = 2) [1] | Percentage MPA release at 60 min in LPL supplemented rat plasma [2] | concentrations of free MPA in mesenteric lymph nodes compared with MPA [3] | monoglyceride (MG) peak [2] |
| --- | --- | --- | --- | --- |
| CCCCCCCCCCCCCCCC(=O)OCC(COC(=O)CCCCCCCCCCCCCCC)OC(=O)CC(C)CCCCCCCC(C)C(=O)Oc1c(C/C=C(\C)CCC(=O)OC)c(OC)c(C)c2c1C(=O)OC2 (stereo not drawn) [I-20] | A (greater than 10% (>10%)) | *** (a release % of >50% to 75%) | – | almost completely disappeared |
| CCCCCCCCCCCCCCCC(=O)OCC(COC(=O)CCCCCCCCCCCCCCC)OC(=O)CC(C)CCCCCCCC(C)C(=O)OCCCCC(=O)Oc1c(C/C=C(\C)CCC(=O)OC)c(OC)c(C)c2c1C(=O)OC2 (stereo not drawn) [I-22, (E)-12-(1,3-Bis(palmitoyloxy)propan-2-yl) 1-(5-((6-methoxy-5-(6-methoxy-3-methyl-6-oxohex-2-en-1-yl)-7-methyl-3-oxo-1,3-dihydroisobenzofuran-4-yl)oxy)-5-oxopentyl) 2,10-dimethyldodecanedioate] | A (greater than 10% (>10%)) | *** (a release % of >50% to 75%) | – | almost completely disappeared |
| CCCCCCCCCCCCCCCC(=O)OCC(COC(=O)CCCCCCCCCCCCCCC)OC(=O)CC(C)CCCCCCCCCOC(=O)CC/C(C)=C/Cc1c(O)c2c(c(C)c1OC)COC2=O (stereo not drawn) [I-51, (E)-2-((12-((6-(4-hydroxy-6-methoxy-7-methyl-3-oxo-1,3-dihydroisobenzofuran-5-yl)-4-methylhex-4-enoyl)oxy)-3-methyldodecanoyl)oxy)propane-1,3-diyl dipalmitate] | A (greater than 10% (>10%)) | – | – | – |
| CCCCCCCCCCCCCCCC(=O)OCC(COC(=O)CCCCCCCCCCCCCCC)OC(=O)CC(C)CCCC(=O)Oc1c(C/C=C(\C)CCC(=O)OC)c(OC)c(C)c2c1C(=O)OC2 (stereo not drawn) [I-53] | A (greater than 10% (>10%)) | – | – | – |
| CCCCCCCCCCCCCCCC(=O)OCC(COC(=O)CCCCCCCCCCCCCCC)OC(=O)CC(C)CCCCCCCC(C)C(=O)Oc1ccc(COc2c(C/C=C(\C)CCC(=O)OC)c(OC)c(C)c3c2C(=O)OC3)cc1 (stereo not drawn) [I-54, (E)-12-(1,3-bis(palmitoyloxy)propan-2-yl) 1-(4-(((6-methoxy-5-(6-methoxy-3-methyl-6-oxohex-2-en-1-yl)-7-methyl-3-oxo-1,3-dihydroisobenzofuran-4-yl)oxy)methyl)phenyl) 2,10-dimethyldodecanedioate] | B (between 1% and 10% (1%-10%)) | – | – | – |
| CCCCCCCCCCCCCCCC(=O)OCC(COC(=O)CCCCCCCCCCCCCCC)OC(=O)CCCCCCCCCCCCCC(=O)Oc1c(C/C=C(\C)CCC(=O)OC)c(OC)c(C)c2c1C(=O)OC2 [I-57, (E)-1-(1,3-bis(palmitoyloxy)propan-2-yl) 15-(6-methoxy-5-(6-methoxy-3-methyl-6-oxohex-2-en-1-yl)-7-methyl-3-oxo-1,3-dihydroisobenzofuran-4-yl) pentadecanedioate] | A (greater than 10% (>10%)) | – | – | – |
| CCCCCCCCCCCCCCCC(=O)OCC(COC(=O)CCCCCCCCCCCCCCC)OC(=O)CC(C)CCCCCCCC(C)C(=O)OC(C)Oc1c(C/C=C(\C)CCC(=O)OC)c(OC)c(C)c2c1C(=O)OC2 (stereo not drawn) [I-58, (E)-12-(1,3-bis(palmitoyloxy)propan-2-yl) 1-(1-((6-methoxy-5-(6-methoxy-3-methyl-6-oxohex-2-en-1-yl)-7-methyl-3-oxo-1,3-dihydroisobenzofuran-4-yl)oxy)ethyl) 2,10-dimethyldodecanedioate] | A (greater than 10% (>10%)) | – | – | – |
| CCCCCCCCCCCCCCCC(=O)OCC(COC(=O)CCCCCCCCCCCCCCC)OC(=O)C(C)CCCCCCCCCC(=O)Oc1c(C/C=C(\C)CCC(=O)OC)c(OC)c(C)c2c1C(=O)OC2 (stereo not drawn) [I-60] | A (greater than 10% (>10%)) | – | – | – |
| CCCCCCCCCCCCCCCC(=O)OCC(COC(=O)CCCCCCCCCCCCCCC)OC(=O)C(C)CCCCCCC(C)C(=O)Oc1c(C/C=C(\C)CCC(=O)OC)c(OC)c(C)c2c1C(=O)OC2 (stereo not drawn) [I-61] | A (greater than 10% (>10%)) | – | – | – |
| CCCCCCCCCCCCCCCC(=O)OCC(COC(=O)CCCCCCCCCCCCCCC)OC(=O)CC(C)CCCCCCCC(C)C(=O)OCCCC(=O)Oc1c(C/C=C(\C)CCC(=O)OC)c(OC)c(C)c2c1C(=O)OC2 (stereo not drawn) [I-62, (E)-12-(1,3-bis(palmitoyloxy)propan-2-yl) 1-(4-((6-methoxy-5-(6-methoxy-3-methyl-6-oxohex-2-en-1-yl)-7-methyl-3-oxo-1,3-dihydroisobenzofuran-4-yl)oxy)-4-oxobutyl) 2,10-dimethyldodecanedioate] | A (greater than 10% (>10%)) | – | – | – |

Further lines, with some results ahead:

| Cumulative lymphatic transport % dose (Mean ± SD, or Range if n = 2) [1] | Percentage MPA release at 60 min in LPL supplemented rat plasma [2] | concentrations of free MPA in mesenteric lymph nodes compared with MPA [3] | Compound | monoglyceride (MG) peak [2] |
| --- | --- | --- | --- | --- |
| A (greater than 10% (>10%)) | *** (a release % of >50% to 75%) | Much higher concentrations | CCCCCCCCCCCCCCCC(=O)OCC(COC(=O)CCCCCCCCCCCCCCC)OC(=O)CC/C(C)=C/Cc1c(O)c2c(c(C)c1OC)COC2=O [I-34, MPA-2-TG] | – |
| B (between 1% and 10% (1%-10%)) | – | – | CCCCCCCCCCCCCCCC(=O)OCC(COC(=O)CCCCCCCCCCCCCCC)OC(=O)CCCCCCCCCCC(=O)Oc1cc(C)cc(C)c1C(C)(C)CC(=O)Oc1c(C/C=C(\C)CCC(=O)OC)c(OC)c(C)c2c1C(=O)OC2 [I-47] | – |
| A (greater than 10% (>10%)) | – | – | CCCCCCCCCCCCCCCC(=O)OCC(COC(=O)CCCCCCCCCCCCCCC)OC(=O)CCCCCCCCCC(=O)Oc1c(C/C=C(\C)CCC(=O)OC)c(OC)c(C)c2c1C(=O)OC2 [I-48] | – |
| A (greater than 10% (>10%)) | – | – | CCCCCCCCCCCCCCCC(=O)OCC(COC(=O)CCCCCCCCCCCCCCC)OC(=O)CC(C)CCCCCCCOC(=O)CC/C(C)=C/Cc1c(O)c2c(c(C)c1OC)COC2=O (stereo not drawn) [I-50, (E)-2-((10-((6-(4-hydroxy-6-methoxy-7-methyl-3-oxo-1,3-dihydroisobenzofuran-5-yl)-4-methylhex-4-enoyl)oxy)-3-methyldecanoyl)oxy)propane-1,3-diyl dipalmitate] | – |
| B (between 1% and 10% (1%-10%)) | – | – | CCCCCCCCCCCCCCCC(=O)OCC(COC(=O)CCCCCCCCCCCCCCC)OC(=O)C(C)CCCCCCCCC(C)C(=O)Oc1cc(C)cc(C)c1C(C)(C)CC(=O)Oc1c(C/C=C(\C)CCC(=O)OC)c(OC)c(C)c2c1C(=O)OC2 (stereo not drawn) [I-52] | – |
